Laboratory results taken from patent US20100317706A1, “HNF4alpha MODULATORS AND METHODS OF USE” (Bumham Institute for Medical Research, priority 2009, published 2010).
Entries after “also recorded” stand apart in the source; their conditions may differ. Each block holds one compound with its values, some of them ahead of it.

Experiments:
human insulin promoter = experiment: Insulin promoter-GFP (ins-GFP transgene) assay in T6PNE cells; assay type: cell-based; conditions: for repression of insulin promoter activity (qualitative): T6PNE ins-eGFP
Text: Primary β-cells are in short supply and have a strong tendency to undergo apoptosis when manipulated in culture. Therefore, a β-cell model was used for the studies regarding β-cell growth and differentiation. T6PNE cells were derived from human fetal islets and were engineered to express the transcription factors PDX-1, NeuroD1, and E47, which are all present in the human β-cell. […] Titrations were used to measure the mRNA or protein amount of insulin expression. In order to adapt the cell line for HTS assays, a lentiviral vector expressing the insulin promoter-e green fluorescent protein (GFP) cassette ins-GFP transgene was used to infect T6PNE. As a result, compounds that targeted the insulin promoter could be visibly detected by changes in the green channel (observing GFP). […] This increase correlates with that of the endogenous insulin message. Therefore, expression in the transfunctioned cell can be used as a baseline so both up and down regulators of the insulin promoter can be monitored in the screening assays. […] of the insulin promoter are useful for analyzing the governing pathways in diabetes. However, both up and down modulators were screened for. […] Insulin expression was monitored and visualized by the ins-GFP transgene. Hits were determined and dependent on the ability to differentiate between a baseline condition and the corresponding positive or negative control. […]
The HTS was performed in a 384-well format where primed T6PNE cells express the ins-GFP transgene and the test compound was added 24 hours later. […] The Images were then analyzed using algorithms (Jeff Price at the Screening Center at the Burnham Institute). Images of each well were captured in the blue channel (to evaluate cell number), the green channel (a readout for insulin gene expression) and the red channel (to eliminate autofluorescent compounds). […] Furthermore, hits are determined by applying threshold intensity gates on the green channel and counting the number of cells above or below that gate in a given well. […]

[1] = test system: endogenous insulin message; experiment: Endogenous insulin message in T6PNE cells; assay type: cell-based, human
Text: Primary β-cells are in short supply and have a strong tendency to undergo apoptosis when manipulated in culture. Therefore, a β-cell model was used for the studies regarding β-cell growth and differentiation. T6PNE cells were derived from human fetal islets and were engineered to express the transcription factors PDX-1, NeuroD1, and E47, which are all present in the human β-cell. […] Titrations were used to measure the mRNA or protein amount of insulin expression. In order to adapt the cell line for HTS assays, a lentiviral vector expressing the insulin promoter-e green fluorescent protein (GFP) cassette ins-GFP transgene was used to infect T6PNE. As a result, compounds that targeted the insulin promoter could be visibly detected by changes in the green channel (observing GFP). […] Therefore, expression in the transfunctioned cell can be used as a baseline so both up and down regulators of the insulin promoter can be monitored in the screening assays. […] Insulin expression was monitored and visualized by the ins-GFP transgene. Hits were determined and dependent on the ability to differentiate between a baseline condition and the corresponding positive or negative control. […]
A few of these were selected for further evaluation. […] The initial confirmatory assay of BIM5078 was performed by measuring the readout of the insulin-GFP transgene. […]

rat HNF4α LBD = biological target: T1, rat HNF4α LBD (Rattus norvegicus, UniProt P22449); experiment: Direct binding by quenching of intrinsic fluorescence of HNF4α LBD; conditions: quenching of Tyr/Trp intrinsic fluorescence
T1 sequence (P22449 147-377 limits assumed): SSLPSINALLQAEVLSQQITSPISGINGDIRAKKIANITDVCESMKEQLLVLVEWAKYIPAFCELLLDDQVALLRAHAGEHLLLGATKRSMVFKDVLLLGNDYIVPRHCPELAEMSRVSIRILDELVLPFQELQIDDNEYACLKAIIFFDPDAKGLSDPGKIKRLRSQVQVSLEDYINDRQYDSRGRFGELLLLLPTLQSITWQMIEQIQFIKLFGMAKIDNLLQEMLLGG
Description: FIGS. 12A and 12B show BIM5078 binding to HNF4α ligand-binding domain (LBD). A. Binding of BIM5078 was analyzed by quenching of intrinsic fluorescence of rat HNF4α LBD aromatic amino acids Tyr/Trp. […] B. BIM5078 was docked to rat HNF4α LBD (PDB Code: 1m7w) using the program BioMedCache. […] Moreover, the chloro group of BIM5078 forms a hydrophobic interaction with the side chain of the binding-pocket residue Val 178.

human PPARγ = biological target: T2, human PPARγ (Homo sapiens, UniProt P37231); experiment: PPAR response element (PPRE)-luciferase reporter assay in HeLa cells; assay type: cell-based; conditions: enhanced by co-transfection with PPARγ expression vector
T2 construct: expressed in transfected cells; host or cells: HeLa cells
T2 sequence (P37231 1-505): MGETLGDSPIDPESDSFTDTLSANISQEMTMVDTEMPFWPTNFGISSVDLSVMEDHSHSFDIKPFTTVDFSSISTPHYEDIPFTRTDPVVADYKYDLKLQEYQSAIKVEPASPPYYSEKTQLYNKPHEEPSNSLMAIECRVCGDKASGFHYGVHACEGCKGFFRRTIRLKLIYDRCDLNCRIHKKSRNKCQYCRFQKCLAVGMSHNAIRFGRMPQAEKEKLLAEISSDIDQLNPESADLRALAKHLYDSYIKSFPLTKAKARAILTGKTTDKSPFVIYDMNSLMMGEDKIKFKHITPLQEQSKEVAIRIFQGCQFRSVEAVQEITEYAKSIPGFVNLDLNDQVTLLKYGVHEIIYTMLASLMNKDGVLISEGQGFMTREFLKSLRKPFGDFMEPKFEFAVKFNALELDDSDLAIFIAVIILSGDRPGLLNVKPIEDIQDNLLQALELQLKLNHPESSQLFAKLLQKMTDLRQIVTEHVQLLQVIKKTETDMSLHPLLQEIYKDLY
Description: The core structure of BIM5078, benzimidazole, is related to known PPARγ compounds that functions as agonists or antagonists. BIM5078 was used in a PPAR response element (PPRE)-luciferase reporter assay. HeLa cells were co-transfected with a PPAR response element (PPRE) reporter plasmid and a human PPARγ expression vector. […] Known PPARγ agonists were used as positive controls. The same PPARγ agonist compounds were tested on T6PNE ins-eGFP for their ability to repress the insulin promoter. Known PPARγ agonists are unable to suppress insulin gene transcription. Similarly, other PPAR agonists of the alpha and delta class were also negative in the assay. However, because HNF4α also binds to PPREs, BIM5078's ability to bind HNF4α was further investigated.

HBV = experiment: HBsAg expression in Huh7 cells transfected with wild type HBV construct (pWTD); assay type: cell-based, Hepatitis B virus; conditions: GP33 and GP36 doublet bands
Text: BIM5078 is an HNF4α antagonist and can be useful in treatment of diseases involving HNF4α modulation. There are a number of HNF4α binding sites in the HBV genome, including the enhancer region, the core promoter and the polymerase. BIM5078 can downregulate the core and polymerase, and it has been discovered that it can effectively suppress or eliminate HBV proliferation. Also, the HNF4α binding sites are well-conserved and no mutations of these sites have yet been discovered in the various HBV strains. Thus, targeting HNF4α can circumvent the resistance seen with traditional therapies. […] The ability of the HNF4α antagonist BIM5078 to reduce viral production in Huh7 cells transfected with the wild-type HBV construct (pWTD) was tested. […] The large decrease in the two glycosylation forms of the surface antigen was visualized as doublet bands (FIG. 11).

HNF1α = HNF1α transcription; assay type: cell-based
Description: HNF1α is a downstream target of HNF4α and has a known binding site on the human insulin gene promoter. […] It is unclear whether HNF4α is modulating the insulin promoter directly or indirectly through a downstream target. Overexpression of HNF1α or HNF4α would overcome the repressive effects of BIM5078. The repressive effect of BIM5078 was lost when it was added to T6PNE cells with high levels of induced E47 (FIG. 10). High E47 levels are thought to resemble the normal state of a (3-cell while low levels of E47 to simulate the stress condition.

HNF4α = biological target: T3, HNF4α (Homo sapiens, UniProt P41235); experiment: HNF4α subcellular localization; assay type: cell-based
T3 construct: endogenous in cells
T3 sequence (P41235 1-474): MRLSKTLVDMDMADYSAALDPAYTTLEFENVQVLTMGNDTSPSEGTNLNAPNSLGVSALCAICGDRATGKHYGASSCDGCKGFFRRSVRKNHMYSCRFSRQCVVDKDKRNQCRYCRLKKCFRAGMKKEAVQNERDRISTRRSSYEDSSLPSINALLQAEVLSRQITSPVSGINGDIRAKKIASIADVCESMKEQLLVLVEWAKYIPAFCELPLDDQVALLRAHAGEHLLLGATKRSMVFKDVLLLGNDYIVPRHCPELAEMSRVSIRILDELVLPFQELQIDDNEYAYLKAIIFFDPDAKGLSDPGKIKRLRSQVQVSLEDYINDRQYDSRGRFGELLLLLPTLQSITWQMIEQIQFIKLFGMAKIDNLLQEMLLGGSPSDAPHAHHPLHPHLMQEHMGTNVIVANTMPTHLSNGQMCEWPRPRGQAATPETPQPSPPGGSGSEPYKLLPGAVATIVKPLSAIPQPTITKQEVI
Text: Many ligands for nuclear receptor subfamilies induce the translocation of their receptors between the cytoplasm and the nucleus.

[2] = hoFH patients, 10 mg/day added to maximal-dose statin regimen; cited from earlier work

SMILES: O=[N+]([O-])c1cccc(S(=O)(=O)n2cnc3ccccc32)c1 [BI-6001, 1-(3-Nitrophenylsulfonyl)-1H-benzo[d]imidazole]
melting point: 154 to 156 °C

SMILES: Cc1nc2ccccc2n1S(=O)(=O)c1cccc([N+](=O)[O-])c1 [BI-6002, 2-Methyl-1-(3-nitrophenylsulfonyl)-1H-benzo[d]imidazole]
melting point: 148 to 150 °C

SMILES: Cc1nc2ccccc2n1S(=O)(=O)c1cc([N+](=O)[O-])ccc1Cl [BIM5078, 1-[(2′-chloro-5-nitrophenyl)sulfonyl]-2-methyl-1H-benzimidazole]
suppression of GFP expression (insulin-GFP transgene) (human insulin promoter; 5 μM, T6PNE cells): up to 30 fold
repression of insulin promoter activity (qualitative) (human insulin promoter): downregulator of human insulin promoter activity
repression of insulin message ([1]; 5 μM, insulin message induced by 1 μM 4-hydroxytamoxifen): 6 fold
repressive effect on insulin expression at high E47 ([1]; T6PNE cells with high levels of induced E47 (high 4OHT)): lost
Kd (rat HNF4α LBD): 11.9 nM
activation of PPRE reporter (human PPARγ): activated the PPRE
HBV surface antigen (HBsAg) level (HBV): decreased the HBsAg protein expression; also recorded: decreased their levels of surface antigen
effect on HNF1α transcription (HNF1α): decrease the HNF1α transcription
localization of HNF4α upon compound addition (HNF4α): localized entirely in the nucleus

SMILES: O=C1[C@H](CC[C@H](O)c2ccc(F)cc2)[C@@H](c2ccc(O)cc2)N1c1ccc(F)cc1 [ezetimibe]
total reduction of LDL-C levels [2]: 27%

SMILES: CCCCCCCCCCCCCCCC(=O)O [palmitic acid, reference compound]
repression of insulin promoter activity (qualitative) (human insulin promoter): suppresses the insulin promoter activity in a dose-dependent fashion

Other lines, results leading:

melting point: 157 to 159 °C
SMILES: Cc1nc2ccccc2n1C(=O)c1cc([N+](=O)[O-])ccc1Cl [BI-6009, 1-(2-Chloro-5-nitrobenzoyl)-2-methyl-1H-benzo[d]imidazole]

melting point: 149 to 151 °C
SMILES: O=C(c1cc([N+](=O)[O-])ccc1Cl)n1cnc2ccccc21 [BI-6010, 1-(2-Chloro-5-nitrobenzoyl)-1H-benzo[d]imidazole]

melting point: 120 to 122 °C
SMILES: Cc1nc2ccccc2n1C(=O)c1cccc([N+](=O)[O-])c1 [BI-6011, 2-Methyl-1-(3-nitrobenzoyl)-1H-benzo[d]imidazole]

melting point: 133 to 135 °C
SMILES: O=C(c1cccc([N+](=O)[O-])c1)n1cnc2ccccc21 [BI-6012, 1-(3-Nitrobenzoyl)-1H-benzo[d]imidazole]

melting point: 110 to 112 °C
SMILES: CCOC(=O)c1ccc(Cl)c(S(=O)(=O)n2c(C)nc3ccccc32)c1 [BI-6013, 1-(5-Carbethoxy-2-chlorophenylsulfonyl)-2-methyl-1H-benzo[d]imidazole]

melting point: 159 to 161 °C
SMILES: Cc1ccc([N+](=O)[O-])cc1S(=O)(=O)n1cnc2ccccc21 [BI-6016, 1-(2-Methyl-5-nitrobenzenesulfonyl)benzimidazole]
